tested on: GM3; test: GM3 Elisa assay; type: cell-based; conditions: 48 h, Table 1; B16-FO cells, 2 days incubation; read-out: IC50_uM_Mean
In short: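 Murine B16-FO melanoma cells attached 6 h on collagen, then exposed to compounds for 2 days at 37 °C. After formaldehyde fixation, cell-surface GM3 (NeuAc) was detected by anti-GM3 IgM and peroxidase anti-mouse IgM with Quantablu fluorescence (Ex 325/Em 420).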

**Q.** `O=C(N[C@H](CN1CCCC1)[C@H](O)c1ccc2c(c1)OCCO2)c1cc(-c2cccs2)on1` [Compound 90, N-((1R,2R)-1-(2,3-dihydrobenzo[β][1,4]dioxin-6-yl)-1-hydroxy-3-(pyrrolidin-1-yl)propan-2-yl)-5-(thiophen-2-yl)isoxazole-3-carboxamide] was tested. Which IC50 did it give?
**A.** The IC50 was 0.1 to 1 µM.

**Q.** With `COc1ccc(CCC(=O)N[C@H](CN2CCCC2)[C@H](O)c2ccc3c(c2)OCCO3)cc1Cl` [Compound 92, 3-(3-chloro-4-methoxyphenyl)-N-((1R,2R)-1-(2,3-dihydrobenzo[β][1,4]dioxin-6-yl)-1-hydroxy-3-(pyrrolidin-1-yl)propan-2-yl)propanamide] as the molecule, how does the IC50 read?
**A.** Its IC50 is no more than 0.1 µM.

**Q.** How did the IC50 turn out when `CC(C)Oc1ccc(C(=O)CCCCC(=O)N[C@H](CN2CCCC2)[C@H](O)c2ccc3c(c2)OCCO3)cc1` [Compound 181, N-((1R,2R)-1-(2,3-dihydrobenzo[b][1,4]dioxin-6-yl)-1-hydroxy-3-(pyrrolidin-1-yl)propan-2-yl)-6-(4-isopropoxyphenyl)-6-oxohexanamide] was run?
**A.** The IC50 was no more than 0.1 µM.

same assay, conditions: 48 h, Table 2; B16-FO cells, 2 days incubation; read-out: IC50_uM_Mean

**Q.** How did the IC50 turn out when `COc1ccc(C(=O)CCCCCC(=O)N[C@H](CN2CCCC2)[C@H](O)c2ccc(OC)cc2)cc1` [Compound 285, 7-(4-Methoxy-phenyl)-7-oxo-heptanoic acid [2-hydroxy-2-(4-methoxy-phenyl)-1-pyrrolidin-1-ylmethyl-ethyl]-amide] was run?
**A.** The IC50 was no more than 0.1 µM.

same assay, conditions: Table 3 (IC 50 Values); B16-FO cells; read-out: IC50_uM_Mean

**Q.** With `COc1ccc(C(=O)CCCC(=O)N[C@H](CN2CCCC2)[C@H](O)c2ccc(C)c(F)c2)cc1` [Compound 346] as the molecule, how does the IC50 read?
**A.** The IC50 was 0.1 to 1 µM.

**Q.** For `O=C(CCCCCC(=O)c1ccc(F)cc1)N[C@H](CN1CC[C@@H](F)C1)[C@H](O)c1ccc2c(c1)OCCO2` [Compound 565], which IC50 is on record?
**A.** Its IC50 is no more than 0.1 µM.

**Q.** `COCCOc1ccc(C(=O)CCCCC(=O)N[C@H](CN2CC[C@H](O)C2)[C@H](O)c2ccc(OC(C)C)cc2)cc1` [Compound 740] was tested. Which IC50 did it give?
**A.** The IC50 was no more than 0.1 µM.

**Q.** Which IC50 does the source give for `CCCCCCCCCCCCCCCC(=O)N[C@H](CN(C)Cc1ccco1)[C@H](O)c1ccc2c(c1)OCCO2` [Compound 683] here?
**A.** The IC50 was 3 to 10 µM.

**Q.** How did the IC50 turn out when `COc1ccc(C(=O)CCCCCC(=O)N[C@H](CNCC(C)(C)C)[C@H](O)c2ccc3c(c2)OCCO3)cc1` [Compound 466] was run?
**A.** The IC50 was 3 to 10 µM.

**Q.** How did the IC50 turn out when `CCCCCCCC(=O)N[C@H](CN1CCCC1)[C@H](O)/C=C/c1ccccc1` [Compound 397] was run?
**A.** Its IC50 is 3 to 10 µM.

**Q.** For `COc1ccc(OCCC(=O)N[C@H](CN2CCC[C@H]2C)[C@@H](O)c2ccc3c(c2)OCCO3)cc1` [Compound 528], which IC50 is on record?
**A.** The IC50 was 1 to 3 µM.

**Q.** For `CCCCOc1ccc([C@@H](O)C(CN2CC[C@H](O)C2)NC(=O)CCCCCCCOC)cc1` (stereo partly shown) [Compound 592], which IC50 is on record?
**A.** Its IC50 is no more than 0.1 µM.

**Q.** How did the IC50 turn out when `COc1ccc(OCCCC(=O)N[C@H](CN2CC[C@@H](F)C2)[C@H](O)c2ccc(OC(C)C)cc2)cc1` [Compound 445] was run?
**A.** The IC50 was 0.1 to 1 µM.

**Q.** How did the IC50 turn out when `CCCCCCCC(=O)N[C@H](CN1CC[C@@H](O)C1)[C@H](O)c1ccc2c(c1)OCCO2` [Compound 512] was run?
**A.** Its IC50 is 1 to 3 µM.

**Q.** `O=C(N[C@H](CN1CCCC1)[C@H](O)c1ccc(Cl)cc1)OCc1ccccc1` [Compound 379] was tested. Which IC50 did it give?
**A.** The IC50 was 0.1 to 1 µM.

**Q.** For `COc1ccc(C(=O)CCCC(=O)N[C@H](CN2CCCC2)[C@H](O)c2ccc(-c3ccccc3)cc2)cc1` [Compound 696], which IC50 is on record?
**A.** The IC50 was 1 to 3 µM.

**Q.** How did the IC50 turn out when `Cc1ccc(OCCC(=O)N[C@H](CN2CC[C@H](O)C2)[C@H](O)c2ccc(OC(C)C)cc2)cc1` [Compound 738] was run?
**A.** The IC50 was no more than 0.1 µM.

**Q.** How did the IC50 turn out when `CCCCCCCC(=O)N[C@H](CN1CCCC(C)C1)[C@H](O)c1ccc2c(c1)OCCO2` (stereo partly shown) [Compound 613] was run?
**A.** Its IC50 is 3 to 10 µM.

**Q.** With `CCCCCCCC(=O)N[C@H](CN1CCC[C@H]1COC)[C@@H](O)c1ccc2c(c1)OCCO2` [Compound 534] as the molecule, how does the IC50 read?
**A.** Its IC50 is 3 to 10 µM.

**Q.** How did the IC50 turn out when `COc1ccc(OCCCN(C(=O)CCCCC(=O)c2ccc(OC)cc2)[C@H](CN2CCCC2)[C@H](O)c2ccc(O)cc2)cc1` [Compound 429] was run?
**A.** Its IC50 is 3 to 10 µM.

**Q.** With `O=C(CCCCCNC(=O)C(F)(F)F)N[C@H](CN1CCCC1)[C@H](O)c1ccc2c(c1)OCCO2` [Compound 481] as the molecule, how does the IC50 read?
**A.** The IC50 was 3 to 10 µM.

**Q.** `COc1ccc(C(=O)CCCCCC(=O)N[C@H](CN(CC2CC2)CC2CC2)[C@H](O)c2ccc3c(c2)OCCO3)cc1` [Compound 464] was tested. Which IC50 did it give?
**A.** Its IC50 is 3 to 10 µM.
